Each structure is given as a SMILES string. A value given as a limit tells only on which side of the number the result lay.

The target in the assay is T1, human c-Met (Homo sapiens, UniProt P08581).
T1 construct: Recombinant GST-tagged cytosolic domains of human c-Met; 6xHis; made in house; host or cells: Sf9 or Sf21 insect cells (baculovirus, Pharmingen pGcGHLT vector)
T1 sequence (P08581 956-1390 limits assumed): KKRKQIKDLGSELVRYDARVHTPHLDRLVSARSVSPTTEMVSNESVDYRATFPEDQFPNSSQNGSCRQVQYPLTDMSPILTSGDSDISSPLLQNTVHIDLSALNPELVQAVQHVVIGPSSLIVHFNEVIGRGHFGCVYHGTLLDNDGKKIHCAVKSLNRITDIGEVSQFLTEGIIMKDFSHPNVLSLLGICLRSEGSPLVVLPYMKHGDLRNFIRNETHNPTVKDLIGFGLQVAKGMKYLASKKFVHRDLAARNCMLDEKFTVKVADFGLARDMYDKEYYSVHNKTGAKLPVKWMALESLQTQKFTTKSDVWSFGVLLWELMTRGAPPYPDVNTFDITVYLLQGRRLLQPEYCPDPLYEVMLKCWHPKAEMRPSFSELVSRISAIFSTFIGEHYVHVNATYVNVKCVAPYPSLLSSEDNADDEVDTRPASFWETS
Description: In vitro c-Met kinase assay (homogeneous time-resolved fluorescence). Format: biochemical. The conditions noted are these: recombinant GST-tagged c-Met cytosolic domain, 50 μM MgATP, HTRF. The source says:
Recombinant GST-tagged cytosolic domains of human c-Met and other receptor tyrosine kinases including mouse c-Met, human Ron, KDR, IGFR, EGFR, FGFR, Mer, TrkA and Tie2 are used to determine whether the compounds of the instant invention modulate the enzymatic activities of these kinases.
Soluble recombinant GST-tagged cytosolic domains of c-Met and other receptor tyrosine kinases are expressed in a baculovirus system (Pharmingen) according to a protocol recommended by the manufacturer. The c-DNA encoding each cytosolic domain is subcloned into a baculovirus expression vector (pGcGHLT-A, B or C, Pharmingen) containing an in frame 6× histidine tag and a GST tag. The resulting plasmid construct and BaculoGold baculovirus DNA (Pharmingen) are used to co-transfect Sf9 or Sf21 insect cells. After confirming expression of GST-tagged kinase fusion, a high titer recombinant baculovirus stock is produced, expression conditions are optimized, and a scaled up expression of rat KDR-GST fusion is performed. The fusion kinase is then purified from the insect cell lysate by affinity chromatography using glutathione agarose (Pharmingen). The purified protein is dialyzed against 50% glycerol, 2 mM DTT, 50 mM Tris-HCl (pH 7.4) and stored at −20° C. The protein concentrations of the fusion proteins are determined using Coomassie Plus Protein Assay (Pierce) with BSA as standard.
The procedure for determining the potency of a compound to inhibit c-Met kinase comprises the following steps: • 1. Prepare 3-fold serial diluted compound solutions in 100% dimethyl sulfoxide (DMSO) at 20× of the desired final concentrations in a 96 well plate. • 2. […] In a black assay plate, add 2.5 μl of compound solution (or DMSO) and 37.5 μl of master reaction mix per well. Initiate the kinase reaction by adding 10 μl of 0.25 mM MgATP per well. Allow the reactions to proceed for 80 min at room temperature. The final conditions for the reaction are 0.2 nM c-Met, 0.5 μM substrate, 50 μM MgATP, 5 mM MgCl2, 100 mM NaCl, 2 mM DTT, 0.1 mg/ml BSA, 50 mM Tris (pH 7.4) and 5% DMSO. • 4. […] Read HTRF signals on a Victor reader (PerkinElmer) in HTRF mode after 60 min. • 6.
With `CN(C)S(=O)(=O)C(F)(F)c1ccc2ccc3ncc(-c4cnn(C)c4)cc3c(=O)c2c1` [Compound 4-1, 1,1-Difluoro-N,N-dimethyl-1-[3-(1-methyl-1H-pyrazol-4-yl)-5-oxo-5H-benzo[4,5]cyclohepta[1,2-b]pyridin-7-yl]methanesulfonamide], the IC50 is at most 50 µM.
For `CC(c1ccc2ccc3ncc(-c4cnn(C)c4)cc3c(=O)c2c1)S(=O)(=O)N(C)c1ccccc1` (stereo not shown) [Compound 7-1, N-methyl-1-[3-(1-methyl-1H-pyrazol-4-yl)-5-oxo-5H-benzo[4,5]cyclohepta[1,2-b]pyridin-7-yl]-N-phenylethanesulfonamide], the concentration for half-maximal inhibition (IC50) was at most 50 µM.
Turning to `CN(C)S(=O)(=O)C(F)c1ccc2ccc3ncc(-c4cnn(C)c4)cc3c(=O)c2c1` (stereo not shown) [Compound 4-2, 1-Fluoro-N,N-dimethyl-1-[3-(1-methyl-1H-pyrazol-4-yl)-5-oxo-5H-benzo[4,5]cyclohepta[1,2-b]pyridin-7-yl]methanesulfonamide], the IC50 is at most 50 µM.
Consider `Cn1cc(-c2cnc3ccc4ccc(CS(=O)(=O)Nc5cccnc5)cc4c(=O)c3c2)cn1` [Compound 5-5, 1-[3-(1-methyl-1H-pyrazol-4-yl)-5-oxo-5H-benzo[4,5]cyclohepta[1,2-b]pyridin-7-yl]-N-pyridin-3-ylmethanesulfonamide], for which the IC50 is at most 50 µM.

The values above are taken from US8101603B2, “Tyrosine kinase inhibitors” (Merck Sharp & Dohme Corp., priority 2006, dated 2012).
